# Test results from the supplement of paper PMC10307832.
# Legend:
# Experiment in all cases: relative viability (nuclei count vs DMSO), 5 days (fraction); higher = more cells survive
# [1] = tested on: 201T
# How it was run: (§1)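 Five library-drug doses in √10 steps were combined with a fixed anchor-drug dose, or a single drug was given alone, by pin tool to lung cancer cell lines in 1536-well plates the day after seeding. Nuclei were stained and counted after 5 days. Relative viability is the nuclei count in treated wells over that in vehicle wells, taken as the median of duplicate plates.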
# [2] = tested on: COR-L23
# How it was run: as §1
# [3] = tested on: H3255
# How it was run: as §1
# [4] = tested on: HARA
# How it was run: as §1
# [5] = tested on: HCC-366
# How it was run: as §1
# [6] = tested on: HCC-78
# How it was run: as §1
# [7] = tested on: LU99A
# How it was run: as §1
# [8] = tested on: NCI-H1650
# How it was run: as §1
# [9] = tested on: NCI-H1651
# How it was run: as §1
# [10] = tested on: NCI-H1755
# How it was run: as §1
# [11] = tested on: NCI-H1793
# How it was run: as §1
# [12] = tested on: NCI-H2085
# How it was run: as §1
structure (smiles),measurement,setting,value
CN1CCN(CCOc2cc(OC3CCOCC3)c3c(Nc4c(Cl)ccc5c4OCO5)ncnc3c2)CC1 [Saracatinib] + Nc1nc2[nH]cc(CCc3ccc(C(=O)N[C@@H](CCC(=O)O)C(=O)O)cc3)c2c(=O)[nH]1 [Pemetrexed] (partner 0.2 µM),relative viability,[1]; first compound 0.02 µM,0.312
same,relative viability,[1]; first compound 0.2 µM,0.337
same,relative viability,[1]; first compound 0.6325 µM,0.341
same,relative viability,[1]; first compound 2 µM,0.336
same,relative viability,[2]; first compound 0.02 µM,0.211
same,relative viability,[2]; first compound 0.2 µM,0.2
same,relative viability,[2]; first compound 0.6325 µM,0.176
same,relative viability,[2]; first compound 2 µM,0.184
same,relative viability,[3]; first compound 0.02 µM,0.591
same,relative viability,[3]; first compound 0.2 µM,0.514
same,relative viability,[3]; first compound 0.6325 µM,0.521
same,relative viability,[3]; first compound 2 µM,0.421
same,relative viability,[4]; first compound 0.02 µM,0.268
same,relative viability,[4]; first compound 0.2 µM,0.266
same,relative viability,[4]; first compound 0.6325 µM,0.191
same,relative viability,[4]; first compound 2 µM,0.213
same,relative viability,[5]; first compound 0.02 µM,0.162
same,relative viability,[5]; first compound 0.2 µM,0.17
same,relative viability,[5]; first compound 0.6325 µM,0.189
same,relative viability,[5]; first compound 2 µM,0.17
same,relative viability,[6]; first compound 0.02 µM,0.916
same,relative viability,[6]; first compound 0.6325 µM,0.925
same,relative viability,[6]; first compound 2 µM,0.841
same,relative viability,[7]; first compound 0.02 µM,0.205
same,relative viability,[7]; first compound 0.2 µM,0.214
same,relative viability,[7]; first compound 0.6325 µM,0.173
same,relative viability,[7]; first compound 2 µM,0.165
same,relative viability,[8]; first compound 0.02 µM,0.343
same,relative viability,[8]; first compound 0.2 µM,0.357
same,relative viability,[8]; first compound 0.6325 µM,0.318
same,relative viability,[8]; first compound 2 µM,0.307
same,relative viability,[9]; first compound 0.02 µM,0.633
same,relative viability,[9]; first compound 0.2 µM,0.566
same,relative viability,[9]; first compound 0.6325 µM,0.621
same,relative viability,[9]; first compound 2 µM,0.581
same,relative viability,[10]; first compound 0.02 µM,0.465
same,relative viability,[10]; first compound 0.2 µM,0.409
same,relative viability,[10]; first compound 0.6325 µM,0.424
same,relative viability,[10]; first compound 2 µM,0.394
same,relative viability,[11]; first compound 0.02 µM,0.947
same,relative viability,[11]; first compound 0.2 µM,0.766
same,relative viability,[11]; first compound 0.6325 µM,0.743
same,relative viability,[11]; first compound 2 µM,0.568
same,relative viability,[12]; first compound 0.02 µM,0.929
same,relative viability,[12]; first compound 0.2 µM,0.838
